Experimental data taken from patent US20080146592A1, “Method of Treating Preeclampsia Employing Metolazone” (priority 2003, published 2008).

Test system: “preeclamptic” rat model
Test: "preeclamptic" rat model (pregnant rats, saline drinking water plus weekly DOCA)
Assay type: in vivo, Sprague-Dawley rats
Experimental: Metolazone is a diuretic with unique properties. At low doses, it reduces blood pressure in our “preeclamptic” rat model. Female Sprague-Dawley rats were mated and the “preeclamptic” syndrome was induced by replacing their drinking water with saline and injecting them with DOCA at weekly intervals. When hypertension had occurred (3-5 days of gestation), the animals were randomly divided into two groups: 1) Group I (PE+M), n=7, was given metolazone in a daily dose of 0.04 mg/kg body weight daily for 12-14 day by gavage and 2) Group II (PE) n=5, was simply given the vehicle (saline).

[1] = rat model of preeclampsia, metolazone treatment

- Weight gain versus vehicle group (PE+M versus PE rats): similar
- Volume contraction (rat model of preeclampsia, non-diuretic dose): without causing volume contraction
Structure (SMILES): Cc1ccccc1N1C(=O)c2cc(S(N)(=O)=O)c(Cl)cc2NC1C (stereo not shown) [Metolazone, metolazone]
- Urinary sodium excretion after M (PE+M rats, 0.04 mg/kg daily by gavage, 16.2+/−6 mM/24 h prior to M administration, p>0.05): 15.3 mM/24 h
- Growth retardation (animals affected) (PE+M rats, seen in four of the five vehicle PE animals): none
- Blood pressure in the PE+M animals after treatment (mean) (metolazone 0.04 mg/kg body weight daily for 12-14 day by gavage, before treatment 119+/−3 mm Hg, vehicle PE rats 121+/−7 mm Hg, p<0.01): 100+/−16 mm/Hg
- Effect on intrauterine growth restriction [1]: beneficial effect
- Influence on pup number and development [1]: positive influence
